For series [1], the system named is Pyricularia oryzae. Briefly: microbe, parasite or virus in culture. Format: cell-based. The note with it: for Efficacy: inhibition of fungal growth, liquid culture; for inhibition at 20 ppm: Pyricularia oryzae, 120 h, read-out: efficacy (inhibition of fungal growth).
The subject of series [2] is Septoria tritici. Nature of the series: Example D: in vivo preventive test on Septoria tritici (leaf spot on wheat). The procedure:
Example D: In Vivo Preventive Test on Septoria tritici (Leaf Spot on Wheat)
(§1) • Solvent: 5% by volume of dimethyl sulfoxide • 10% by volume of acetone • Emulsifier: 1 μL of Tween® 80 per mg of active ingredient
The active compounds were made soluble and homogenized in a mixture of dimethyl sulfoxide/acetone//Tween® 80 and then diluted in water to the desired concentration.
The young plants of wheat were treated by spraying the active compound prepared as described above. Control plants were treated only with an aqueous solution of acetone/dimethyl sulfoxide/Tween® 80.
After 24 hours, the plants were contaminated by spraying the leaves with an aqueous suspension of Septoria tritici spores. The contaminated wheat plants were incubated for 72 hours at 18° C. and at 100% relative humidity and then for 21 days at 20° C. and at 90% relative humidity.
The test was evaluated 24 days after the inoculation. 0% means an efficacy which corresponds to that of the control plants while an efficacy of 100% means that no disease is observed.

The subject of series [3] is Botrytis cinerea. Nature of the series: Example B: in vivo preventive test on Botrytis cinerea (grey mould). The note with it: evaluated 4 to 5 days after inoculation. The procedure:
Example B: In Vivo Preventive Test on Botrytis cinerea (Grey Mould)
as §1
The tested compounds were made soluble and homogenized in a mixture of dimethyl sulfoxide/acetone//Tween® 80 and then diluted in water to the desired concentration.
The young plants of gherkin were treated by spraying the tested compounds prepared as described above. Control plants were treated only with an aqueous solution of acetone/dimethyl sulfoxide/Tween® 80.
After 24 hours, the plants were contaminated by spraying the leaves with an aqueous suspension of Botrytis cinerea spores. The contaminated gherkin plants were incubated for 4 to 5 days at 17° C. and at 90% relative humidity.
The test was evaluated 4 to 5 days after the inoculation. 0% means an efficacy which corresponds to that of the control plants while an efficacy of 100% means that no disease is observed.

Series [4] in a line: log P by HPLC on reversed-phase column (C18), EEC Directive 79/831 Annex V.A8. The note with it: for chromatographic logP: reversed-phase HPLC column (C18). Format: physicochemical. In a few lines: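 Retention time on C18 reversed-phase HPLC at 40 °C, gradient 10% to 95% acetonitrile with either 0.1% aqueous formic acid (Method A) or 0.001 molar ammonium acetate (Method B). Calibrated with unbranched alkan-2-ones (C3–C16) of known log P by linear interpolation between successive alkanones.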

Where [5] appears, read: dose 0.06 ppm, 5 days incubation.
Where [6] appears, read: dose 0.25 ppm, 5 days incubation.
[7] abbreviates: 4 ppm of active ingredient, 5 days incubation.
Setting [8] is: 500 ppm of active ingredient, gherkin plants, preventive.
Where [9] appears, read: dose 500 ppm, preventive spray on gherkin plants.
Setting [10] is: Method A: 40° C., 0.1% aqueous formic acid and acetonitrile.
[11] abbreviates: Method B: 40° C., 0.001 molar ammonium acetate solution in water and acetonitrile.

As a reminder, the chromatographic logP is a lipophilicity value derived from retention on a column. One may read the inhibition as how much of the control response was suppressed. Broadly, the logP is the decadic logarithm of the partition coefficient of the neutral form, usually between octanol and water. A lower logP goes with a more hydrophilic compound.

`Cc1nc2c(F)c(F)ccc2cc1Oc1ccccc1C[Si](C)(C)C` [CMP1, 7,8-difluoro-2-methyl-3-{2-[(trimethylsilyl)methyl]phenoxy}quinoline, reference compound]: the Efficacy was 1% in series [1] (setting [5]); 56% in series [1] (setting [6]); “no protection” in series [2] (500 ppm of active ingredient, evaluated 24 days after inoculation); 0% in series [2] (Table D, dose 500 ppm). In addition, the “efficacy (inhibition of fungal growth)” value in series [1] (dose of 0.25 ppm or 0.06 ppm) was “much lower efficacy”.
With `Cc1cc(Oc2cccc(F)c2[Si](C)(C)C)c2ccc(F)c(F)c2n1` [CMP3, 7,8-difluoro-4-[3-fluoro-2-(trimethylsilyl)phenoxy]-2-methylquinoline, reference compound], the Efficacy in series [1] (1 ppm, 5 days incubation) is recorded as 0%; in series [1] (4 ppm, 5 days incubation) it was 25%; in series [1] (20 ppm, 5 days incubation) it was 96%; in series [3] (setting [8]), “no efficacy”; in series [3] (setting [9]), 0%. Also, in series [1] (setting [7]), the “efficacy (inhibition of fungal growth)” value is on record as “much lower efficacy”.
As for `C[Si](C)(C)c1c(F)cccc1Oc1ccnc2cccnc12` [CMP4, 4-[3-fluoro-2-(trimethylsilyl)-phenoxy]-1,5-naphthyridine, reference compound], the Efficacy is reported as 0% in series [1] (1 ppm, 5 days incubation); 11% in series [1] (4 ppm, 5 days incubation); 44% in series [1] (20 ppm, 5 days incubation); “no efficacy” in series [3] (setting [8]); 0% in series [3] (setting [9]). In addition, the “efficacy (inhibition of fungal growth)” value in series [1] (setting [7]) is “much lower efficacy”.
In the case of `C[Si](C)(C)c1ccccc1Oc1cnc2ccccc2c1` [I.001, 3-[2-(trimethylsilyl)phenoxy]quinoline], in series [4] (setting [10]), the chromatographic logP was 5.17. The inhibition at 20 ppm in series [1] lay within 90 to 100%.
`C[Si]1(c2c(F)cccc2Oc2cnc3ccccc3c2)CCC1` [I.008, 3-[3-fluoro-2-(1-methylsiletan-1-yl)phenoxy]quinoline]: the chromatographic logP in series [4] (setting [10]) worked out at 5.39. Further, the inhibition at 20 ppm in series [1] fell in the range of 90 to 100%.
On to `C[Si]1(C)OCc2cccc(Nc3cnc4ccccc4c3)c21` [I.010, N-(1,1-dimethyl-1,3-dihydro-2,1-benzoxasilol-7-yl)quinolin-3-amine], for which, in series [4] (setting [11]), the chromatographic logP stood at 3.15. Moreover, in series [1], the inhibition at 20 ppm lay within 80 to 89%.
For `C[Si](C)(C)c1cc(F)ccc1Oc1cnc2c(Cl)cccc2c1` [I.019], the logP in series [4] (setting [10]) is on record as 5.62. Further, the Efficacy in series [1] (1 ppm, 5 days incubation) is given as 45%; in series [1] (4 ppm, 5 days incubation) it was 98%; in series [1] (20 ppm, 5 days incubation), 97%.
The molecule `Cc1nc2c(F)c(F)ccc2cc1Oc1ccccc1[Si](C)(C)C` [I.024] came in with a logP in series [4] (setting [10]) of 6.01. The Efficacy amounted to 89% in series [1] (setting [5]); 96% in series [1] (setting [6]); 81% in series [2] (Table D, dose 500 ppm). Besides, the “efficacy (inhibition of fungal growth)” value in series [1] (dose of 0.25 ppm or 0.06 ppm) is listed as “at least 80%”.
As for `Cc1nc2c(F)c(F)ccc2cc1Oc1ccccc1[Si](C)(C)O` [I.026, {2-[(7,8-difluoro-2-methylquinolin-3-yl)oxy]phenyl}(dimethyl)silanol], in series [4] (setting [10]), the chromatographic logP was determined as 3.51. Besides, the inhibition at 20 ppm in series [1] lay within 90 to 100%.
In series [4] (setting [11]), `Cc1nc2c(F)c(F)ccc2cc1Oc1cccc(F)c1[Si](C)(C)C` [I.027] registered a logP of 5.54. Moreover, the Efficacy in series [1] (1 ppm, 5 days incubation) was found to be 85%; in series [1] (4 ppm, 5 days incubation), 94%; in series [1] (20 ppm, 5 days incubation), 100%; in series [3] (setting [9]), 92%.
`Cc1nc2c(F)c(F)ccc2cc1Oc1cccc(F)c1[Si](C)(C)F` [I.032, 7,8-difluoro-3-{3-fluoro-2-[fluoro(dimethyl)silyl]phenoxy}-2-methylquinoline] yielded a chromatographic logP in series [4] (setting [10]) of 4.75. The inhibition at 20 ppm in series [1] was 90 to 100%.
`Cc1nc2ccccc2cc1Oc1ccccc1[Si](C)(C)C` [I.047, 2-methyl-3-[2-(trimethylsilyl)phenoxy]quinoline] gave a chromatographic logP in series [4] (setting [10]) of 4.85. The inhibition at 20 ppm in series [1] lay in the range of 90 to 100%.
For `C[SiH](c1ccccc1)c1c(F)cccc1Oc1cc2ccccc2nc1Cl` (centres unmarked) [I.062, 2-chloro-3-{3-fluoro-2-[methyl(phenyl)silyl]phenoxy}quinoline] the same measures were 5.78 and 90 to 100%.
In the case of `C[Si](C)(C)c1c(F)cccc1Oc1cnc2cccnc2c1` [I.116], in series [4] (setting [10]), the logP stood at 4.15. Moreover, the Efficacy in series [1] (1 ppm, 5 days incubation) is 90%; in series [1] (4 ppm, 5 days incubation), 100%; in series [1] (20 ppm, 5 days incubation), 100%; in series [3] (setting [9]) it was 73%.

The values above are taken from US10683311B2 (priority 2015, dated 2020).
